Data: patent US20100216755A1, “ANTI-TUMOR AGENT” (AJINOMOTO CO. INC, priority 2001, published 2010)
Structures can show the parent of a compound that is named as a salt. Marks after values point to notes of the source that are not given here.

Experiments:
[1] = Maximum tolerable dose in CDF1 mice; type: in vivo; settings: AC-7700 s.c. 3 times every 3 days, CDF1 mice (female)
[2] = tested on: Malignant fibrous histiocytoma MT-9; experiment: Anti-tumor effect, MT-9/F344 system (tumor volume, I.R.); type: in vivo, rat (F344); settings: for I.R.(%): 3 times every 3 days
Protocol: • Rat tumor cell line (transplant rat strain); • Malignant fibrous histiocytoma MT-9 (F344, male)
MT-9 was obtained as in-vitro cultured cells, which were cultured in RPMI1640 medium containing 10% FBS. 10^7 or more of the MT-9 cells were subcutaneously transplanted into the back of rats. After tumor formation, tumor slices (about 100 mg) were inoculated subcutaneously into rats using cannula for serial passage.
The MT-9/F344 system: Tumors serially passed by the subcutaneous transplantation were extirpated. After binding tissues and necrosis portions in the tumors had been removed, tumor tissues were minced with scissors and made pasty. About 50-100 mg of the tumor tissues were subcutaneously transplanted into the backs of F344 rats (day 0).
After the tumors were multiplied to a measurable quantity (about 1-2 weeks later), the tumor size (tumor volume) and body weight were measured and divided into tumor size-and body weight-matched groups.
The tumor sizes (tumor volumes) and body weights were measured every day from the next day to about the third day following completion of administration. Incidentally, the tumor volume was calculated according to the following formula:
Tumor volume (mm^3)=[…].
T/C(%)=[(tumor volume for the medicine administered group)÷(tumor volume for the control group)]×100
The influence of Dexamethasone on the pharmaceutical effect of AC-7700 was investigated using F344 rats, subcutaneously transplanted MT-9. AC-7700 was administered at a dosage of 10 mg/kg, and 1 mg/kg of Dexamethasone was administered on the day before the AC-7700 administration. Both the medical agents were 3 times administered every 3 days.

SMILES: COc1ccc(/C=C\c2cc(OC)c(OC)c(OC)c2)cc1NC(=O)[C@@H](N)CO [AC-7700, (Z)—N-[2-methoxy-5-[2-(3,4,5-trimethoxyphenyl)vinyl]phenyl]-L-serinamide hydrochloride]
- maximum tolerable dose of AC-7700 ([1]; with Dexamethasone 5 mg/kg/day i.v. on the day before and the day of AC-7700): more than 90 mg/kg/day
- maximum tolerable dose of AC-7700 ([1]; without Dexamethasone): 43.6 mg/kg/day
- tumor growth ([2]; AC-7700 10 mg/kg as single agent, F344 rats, s.c. MT-9): significantly inhibited tumor growth
- tumor growth ([2]; AC-7700 10 mg/kg in combination with Dexamethasone 1 mg/kg, no significant difference from AC-7700 alone (Scheffe's F test)): inhibited tumor growth in the same manner
- I.R.(%) ([2]; AC-7700 10 mg/kg/day alone (DEX 0), F344 rats, s.c. MT-9): 84** %
- I.R.(%) ([2]; AC-7700 10 mg/kg/day combined with DEX 1 mg/kg/day given the day before, F344 rats, s.c. MT-9): 72** %
